# Measurements taken from patent US20260199424A1, “METHODS AND COMPOSITIONS FOR IMPROVING VISUAL FUNCTION IN OCULAR DISEASES AND DISORDERS” (priority 2022, published 2026).
# Where “and” joins values, the source holds several entries; their conditions need not be identical. Identical values can stand only once. Entries after “also recorded” stand apart in the source; their conditions may differ. Like-named read-outs stand apart in the source and are kept apart here. No end group written: not given here.
# How the values were obtained:
# [1] = rabbit, in vivo
# Description: Body weights were measured and recorded prior to first dose, approximately weekly (for surviving animals through Week 12), and prior to euthanasia. […] Ophthalmic examinations were performed using the Hackett-McDonald Scoring System on Days 0, 7, 14, 28, 90, 97, 151, and 168. Pharmacokinetic analyses were performed on the vitreous humor concentration data.
# Seven animals received a repeat IVT dose at 2 mg/mL (0.1 mg/eye) on Day 90.
# Vitreous humor, retina, and choroid were collected on days 1, 7, 14, 28, 42, 61, 90, 97, 151, and 168. Eyes were enucleated, snap frozen using liquid nitrogen, and kept on dry ice or frozen at −80° C. until dissected for collection of aqueous humor, vitreous humor, retina, choroid, iris-ciliary body (ICB), and lens.
# To homogenize ocular tissue samples, weighed amounts of control bovine vitreous humor, retina, and choroid were homogenized in USA scientific impact resistant microtubes containing 2.8 mm ceramic beads. Unknown rabbit vitreous humor, retina, and choroid samples were homogenized in USA scientific impact resistant microtubes containing 2.8 mm ceramic beads. […]
# MCP1 = experiment: Retinal detachment study, cytokine change from administration to surgery: MCP1; type: in vivo, human; conditions: for Percent Change (%) from time of administering ONL1204 to surgery MCP1: individual patients
# Description: (§1) During the study, ocular fluid samples were also collected at the time of study drug injection and at the time of vitrectomy. These samples were used for pharmacokinetic and pharmacodynamic analyses.
# (§2) Patients were enrolled in ascending dose groups. […] Safety visits were conducted one day post-injection and as deemed necessary by the examining Investigator (at least 1 visit every 3 days) until Visit 3. At Visit 3 (3+ days post-injection, in accordance with standard of care) patients underwent surgical repair of their retinal detachment with vitrectomy (with or without scleral buckling) and gas or oil tamponade. At the time of surgery, an undiluted vitreous sample was collected for pharmacokinetic and pharmacodynamics analyses, and an aqueous sample was collected for pharmacodynamic analysis. Additional safety visits were targeted for and generally conducted one day post-surgery, 7 days (±3 days) post-surgery, 14 (±4 days) days post-surgery, and Weeks 6, 9, 12 (±7 days each), and Week 24 (±14 days; study exit).
# IL1RA = experiment: Retinal detachment study, cytokine change from administration to surgery: IL1RA; type: in vivo, human; conditions: for Percent Change (%) from time of administering ONL1204 to surgery IL1RA: individual patients
# Description: as §1, §2
# [2] = system: patients with retinal detachment; experiment: Retinal detachment study, adverse events; type: in vivo, human
# Description: The primary objective was to determine the Maximum Tolerated Dose (MTD) of a peptide an amino acid sequence […] and the structure of Formula III (ONL1204) and select doses for further clinical studies. During the study, ocular fluid samples were also collected at the time of study drug injection and at the time of vitrectomy. These samples were used for pharmacokinetic and pharmacodynamic analyses.
# as §2
# Planned determinations of dose limiting toxicity included consideration of the following events: • 1.
# ICAM1 = experiment: Retinal detachment study, cytokine change from administration to surgery: ICAM1; type: in vivo, human; conditions: for Percent Change (%) from time of administering ONL1204 to surgery ICAM1: individual patients
# Description: as §1, §2
# IL18 = experiment: Retinal detachment study, cytokine change from administration to surgery: IL18; type: in vivo, human; conditions: for Percent Change (%) from time of administering ONL1204 to surgery IL18: individual patients
# Description: as §1, §2
# [3] = minipig, in vivo
# Description: Seven animals received a repeat IVT dose at 2 mg/mL (0.1 mg/eye) on Day 90. […] Vitreous humor, retina, and choroid were collected on days 1, 7, 14, 28, and 88.
# [4] = system: patients having macular degeneration characterized by geographic atrophy (GA); experiment: Study in geographic atrophy (GA) patients, BCVA; type: in vivo, human; conditions: single IVT injection, doses 25 ug and 50 ug as printed
# Description: Baseline best corrected visual acuity (BCVA) was measured prior to treatment with ONL1204.
# [5] = system: patients with progressing open angle glaucoma; experiment: Multi-dose study in progressing open-angle glaucoma, Humphrey Visual Field analysis; type: in vivo, human
# Description: Visual function metrics were measured at over two screening time points, a baseline, and at about days 90, 177, 180, and 270. Measures for visual function included visual field analysis pre- and post-treatment with ONL1204.
# Patients were part of the study for approximately 39 weeks (270 days). Randomization was be stratified by HVF mean deviation (−5.00 dB to >−10.00 dB and ≤−10.00 dB to −15.00 dB).
# FIGS. 3-5 show study and fellow eye data for the changes in mean visual field analysis of clusters in sham, 50 ug, and 100 ug patients. The data represents mean data for each cluster (10 clusters per patient). […] Each cluster is denoted by a rate of change in sensitivity, in dB/yr. The Baseline sensitivity of each cluster is denoted in dB. Positive values indicate an improvement in visual field and/or improving rate of visual field change. FIGS. 6-8 show study and fellow eye data for the changes in mean visual field analysis (unclustered, point specific, pointwise) in sham, 50 ug, and 100 ug patients.
# male rabbit NaIO3 model = experiment: Sodium iodate (NaIO3) challenge study, lesion size (area of RPE depigmentation); type: in vivo; conditions: for lesion area versus negative control: NaIO3 challenge Day 4; for mean lesion size smaller compared to negative controls: NaIO3 challenge Day 59
# Description: Animals were anesthetized with isoflurane vapors to effect. […] No reflux was noted on the dosing record.
# Animals were anesthetized with isoflurane vapors to effect.
# The resulting area was then measured.
# [6] = system: patients with retinal detachment; experiment: Retinal detachment study, best corrected visual acuity; type: in vivo, human; set-up: key to BCVA Snellen study eye baseline / BCVA Snellen study eye week 9: HM = hand motion; CF = counting fingers; conditions: for BCVA logMAR study eye week 6 / BCVA Snellen study eye week 6: week 6, individual patients; for BCVA logMAR study eye week 9 / BCVA Snellen study eye week 9: week 9, individual patients; for BCVA logMAR study eye week 24 / BCVA Snellen study eye week 24: week 24, individual patients
# Description: as §1, §2
# Therefore, a volume of 0.05 or 0.1 mL was injected into the study eye. Patient participation was approximately 24 weeks (6 months): a single injection treatment and 24 weeks of follow-up.
substance,measurement,setting,value
HHIYLGAVNYIY-NH2 [ONL1204],detection in retinal tissue and vitreous humor,[1],detected in retinal tissue as well as the vitreous humor after 168 days
same,detection in the vitreous humor,[1],detected in the vitreous humor across all time points analyzed
same,Percent Change (%) from time of administering ONL1204 to surgery MCP1,MCP1; 25 ug (dose per Table 1),−41.4% and −6.02% and −35.9%
same,Percent Change (%) from time of administering ONL1204 to surgery MCP1,MCP1; 50 ug (dose per Table 1),−3.12% and −48.4% and 11.6%
same,Percent Change (%) from time of administering ONL1204 to surgery MCP1,MCP1; 100 ug (dose per Table 1),−9.5% and 78.5% and 500%
same,Percent Change (%) from time of administering ONL1204 to surgery MCP1,MCP1; 200 ug (dose per Table 1),−2.4%
same,mean change in MCP1 from administration to surgery,MCP1; all patients of Table 7,mean decrease
same,Percent Change (%) from time of administering ONL1204 to surgery IL1RA,IL1RA; 25 ug (dose per Table 1),−51.0% and −57.4% and −99.3%
same,Percent Change (%) from time of administering ONL1204 to surgery IL1RA,IL1RA; 50 ug (dose per Table 1),−60.0% and −94.4% and −88.3%
same,Percent Change (%) from time of administering ONL1204 to surgery IL1RA,IL1RA; 100 ug (dose per Table 1),8.5% and −46.1% and −65.2%
same,Percent Change (%) from time of administering ONL1204 to surgery IL1RA,IL1RA; 200 ug (dose per Table 1),−26.3%
same,mean change in IL1RA from administration to surgery,IL1RA; all patients of Table 7,mean decrease
same,severity of adverse events,"[2]; 25 ug and 50 ug, study procedure or surgery related",Most were mild
same,patients experiencing adverse events,"[2]; 4 patients 25 ug and 4 patients 50 ug, single IVT",7 out of 8
same,total adverse events,"[2]; 8 patients, 25 ug and 50 ug",20
same,Percent Change (%) from time of administering ONL1204 to surgery ICAM1,ICAM1; 25 ug (dose per Table 1),−82.4% and −42.7% and −86.2%
same,Percent Change (%) from time of administering ONL1204 to surgery ICAM1,ICAM1; 50 ug (dose per Table 1),64.0% and −100% and 0%
same,Percent Change (%) from time of administering ONL1204 to surgery ICAM1,ICAM1; 100 ug (dose per Table 1),−43.9% and 24.9% and 22.7%
same,Percent Change (%) from time of administering ONL1204 to surgery ICAM1,ICAM1; 200 ug (dose per Table 1),0%
same,mean change in ICAM from administration to surgery,ICAM1; all patients of Table 7,mean decrease
same,Percent Change (%) from time of administering ONL1204 to surgery IL18,IL18; 25 ug (dose per Table 1),−60.5% and −22.5% and −50.8%
same,Percent Change (%) from time of administering ONL1204 to surgery IL18,IL18; 50 ug (dose per Table 1),0% (2×) and −100%
same,Percent Change (%) from time of administering ONL1204 to surgery IL18,IL18; 100 ug (dose per Table 1),−33.7% and 0% and 66.0%
same,Percent Change (%) from time of administering ONL1204 to surgery IL18,IL18; 200 ug (dose per Table 1),0%
same,mean change in IL18 from administration to surgery,IL18; all patients of Table 7,mean decrease
same,detection in the vitreous humor,[3],detected in the vitreous humor across all time points analyzed
same,"visual outcomes (visual acuity, BCVA) versus baseline",[4],improvement in visual outcomes
same,visual field outcomes as measured by Humphrey Visual Field (HVF) analysis,"[5]; 50 ug and 100 ug, two IVT injections (day 0, day 90), compared to sham",improvement in visual field outcomes; also recorded: improvement in visual field was generally observed
same,visual field benefit in patients having lower baseline sensitivities,[5]; baseline sensitivity equal to or less than −5,benefits of ONL1204 treatment were also observed
same,mean lesion size across challenge time points,male rabbit NaIO3 model; 25 ug and 100 ug per eye IVT Day 0,substantive reduction in mean lesion size
same,lesion area versus negative control,male rabbit NaIO3 model; 25 ug per eye IVT Day 0,significantly lower than negative control
same,mean lesion size smaller compared to negative controls,male rabbit NaIO3 model; 25 ug per eye IVT Day 0,40%
same,lesion area versus negative control,male rabbit NaIO3 model; 100 ug per eye IVT Day 0,significantly lower than negative control
same,lesion size versus negative controls and 25 ug,"male rabbit NaIO3 model; 100 ug per eye IVT Day 0, NaIO3 challenge Day 14",significantly smaller lesion size
same,lesion size versus negative control and 25 ug,"male rabbit NaIO3 model; 100 ug per eye IVT Day 0, NaIO3 challenge Day 28",significantly smaller lesion size
same,mean lesion size smaller compared to negative controls,male rabbit NaIO3 model; 100 ug per eye IVT Day 0,50%
same,BCVA logMAR study eye week 6,[6]; 25 ug (dose per Table 1),0.34 logMAR and 0.18 logMAR and 0.82 logMAR (2×)
same,BCVA logMAR study eye week 9,[6]; 25 ug (dose per Table 1),0.14 logMAR and 0.12 logMAR and 0.64 logMAR and 0.78 logMAR
same,BCVA logMAR study eye week 24,[6]; 25 ug (dose per Table 1),0.5 logMAR and 0.2 logMAR and 0.68 logMAR and 0.7 logMAR
same,BCVA Snellen study eye baseline,"[6]; 25 ug single IVT, baseline, individual patients",20/160 and 20/100 and 20/200 and HM
same,BCVA Snellen study eye week 6,[6]; 25 ug single IVT,20/40 and 20/32 and 20/125 (2×)
same,BCVA Snellen study eye week 9,[6]; 25 ug single IVT,20/25 (2×) and 20/100 and 20/125
same,BCVA Snellen study eye week 24,[6]; 25 ug single IVT,20/60 and 20/32 and 20/100 (2×)
same,BCVA logMAR study eye baseline,"[6]; 50 ug (dose per Table 1), baseline, individual patients",3 logMAR and 2 logMAR (3×)
same,BCVA logMAR study eye week 6,[6]; 50 ug (dose per Table 1),0.46 logMAR and 0.38 logMAR (2×) and 0.52 logMAR
same,BCVA logMAR study eye week 9,[6]; 50 ug (dose per Table 1),0.6 logMAR and 0.56 logMAR and 0.34 logMAR
same,BCVA logMAR study eye week 24,[6]; 50 ug (dose per Table 1),0.76 logMAR and 0.2 logMAR and 0.64 logMAR and 0.34 logMAR
same,BCVA Snellen study eye baseline,"[6]; 50 ug single IVT, baseline, individual patients",HM and CF (3×)
same,BCVA Snellen study eye week 6,[6]; 50 ug single IVT,20/50 (2×) and 20/80
same,BCVA Snellen study eye week 9,[6]; 50 ug single IVT,20/80 (2×) and 20/50
same,BCVA Snellen study eye week 24,[6]; 50 ug single IVT,20/125 and 20/32 and 20/80 and 20/50
same,BCVA logMAR study eye week 6,[6]; 100 ug (dose per Table 1),0.8 logMAR and 0.7 logMAR and 1 logMAR and 1.6 logMAR
same,BCVA logMAR study eye week 24,[6]; 100 ug (dose per Table 1),0.5 logMAR and 0.7 logMAR and 1.3 logMAR and 0.6 logMAR
same,BCVA Snellen study eye baseline,"[6]; 100 ug single IVT, baseline, individual patients",HM (2×) and 20/100 and 20/200
same,BCVA Snellen study eye week 6,[6]; 100 ug single IVT,20/125 and 20/100 and 20/200 and 20/800
same,BCVA Snellen study eye week 9,[6]; 100 ug single IVT,20/200 and 20/80 and HM and 20/400
same,BCVA Snellen study eye week 24,[6]; 100 ug single IVT,20/63 and 20/100 and 20/400 and 20/80
same,BCVA logMAR study eye week 6,[6]; 200 ug (dose per Table 1),0.4 logMAR and 0.7 logMAR
same,BCVA logMAR study eye week 9,[6]; 200 ug (dose per Table 1),0.36 logMAR and 0.6 logMAR
same,BCVA logMAR study eye week 24,[6]; 200 ug (dose per Table 1),0.2 logMAR
same,BCVA Snellen study eye baseline,"[6]; 200 ug single IVT, baseline, individual patients",20/160 and HM
same,BCVA Snellen study eye week 6,[6]; 200 ug single IVT,20/50 and 20/100
same,BCVA Snellen study eye week 9,[6]; 200 ug single IVT,20/40 and 20/80
same,BCVA Snellen study eye week 24,[6]; 200 ug single IVT,20/32
same,"summary statistics for all patients, mean (BCVA logMAR), Week 9","[6]; all doses, n 13, week 9",0.78
same,"summary statistics for all patients, mean (BCVA logMAR), Week 24","[6]; all doses, n 13, week 24",0.56
same,"summary statistics for all patients, mean (BCVA logMAR), Baseline","[6]; all doses, n 14, baseline",1.86
same,"summary statistics for all patients, mean (BCVA logMAR), Week 6","[6]; all doses, n 14, week 6",0.65
same,visual outcomes (visual acuity),[6]; all patients receiving 25 ug and 50 ug,improvement in visual outcomes
